Patent US10261017B2, “Methods for detecting and categorizing skin sensitizers” (University of Mississippi, priority 2014, dated 2019)

system: not listed separately; experiment: NMR method: depletion of electrophile signal on reaction with DCYA; details: not given
Text: The described example can be applied to pure chemicals and mixtures. The method includes the acquisition of at least one NMR spectrum, mixing an electrophile and a nucleophile to acquire an array of control spectra and an addition of catalyst to record an array of reaction spectra. It also includes the quantification of at least one signal and the comparison of the signal with a control and the classification of the reaction based on the depletion of potential sensitizer based on the quantified residual signal.
2,5-Dimethylfuran was used as internal standard. When necessary, characterization of the product(s) formed during the reaction(s) was performed by homonuclear ^1H connectivities using 2D-COSY experiments. […] Two- and three bond ^1H-^13C connectivities were determined by gradient-HMBC experiments in which the evolution period for long-range ^1H-^13C coupling constants was optimized for a ^2,3JC,H of 8 Hz. Through-space ^1H connectivities were determined using a NOESY experiment with a mixing time of 0.450 s. […] Toronto, Canada].
In a 3 mm NMR tube, 1 volume of DCYA (100) mM in CDCl3) was mixed with one volume of sensitizer (100 mM in CDCl3) to give a final concentration of 50 mM for both DCYA and the sensitizer. Control ^1H NMR spectra (reference spectra) were recorded at regular intervals of for a minimum of 5 min. […] All spectra were recorded at constant temperature. All experiments were conducted using the manufacturer's standard presaturation pulse programs and experimental conditions were chosen as explained in NMR spectroscopy section. The progress of the reaction was followed by the diminished peak areas of the resonances for the signal of interest. The spectra were phased, referenced, and integrated using NMR data elaboration software. The structural characterizations of the resulting adducts were confirmed by conducting additional 2D-NMR experiments when necessary.
Covalent reaction of DCYA with carvone is dependent on the activation of the nucleophilic group (ex. sulfhydryl group to the reactive thio-anion) under basic conditions. This reaction is strongly dependent on the nature of the nucleophile and may be modulated by careful choice of the model nucleophile and the reaction conditions.
The control spectra are used as reference spectra (FIG. 3A). All the spectra were subjected to automatic phase and baseline correction using a Bernstein polynomial fit (order 3). After these two steps, all the spectra were integrated over the areas of interest. […] Both vinylic and adduct peak areas were normalized relative to the internal standard signal peaks. […] The concentrations of both electrophile and adduct were then plotted as percentage against time (in minutes). (FIG. 5).

Row | Structure (SMILES) | NMR assay reactivity / classification in words
1 | Oc1ccc(O)cc1 [p-Hydroquinone] | almost unreactive

same assay, conditions: 0.05 equivalents DBN, chloroform

Row | Structure (SMILES) | Depletion
2 | C=C(C)[C@@H]1CC=C(C)C(=O)C1 [L-Carvone] | 23%

same assay, conditions: 0.1 equivalents DBN, chloroform

Row | Structure (SMILES) | Depletion
3 | C=C(C)[C@@H]1CC=C(C)C(=O)C1 [L-Carvone] | 35%

same assay, conditions: 0.2 equivalents DBN, chloroform

Row | Structure (SMILES) | Depletion
4 | C=C(C)[C@@H]1CC=C(C)C(=O)C1 [L-Carvone] | 28%

same assay, conditions: DMSO; 0.1 equiv. DBN, 0.1 M DCYA, 0.1 M L-carvone

Row | Structure (SMILES) | Conversion rate
5 | C=C(C)[C@@H]1CC=C(C)C(=O)C1 [L-Carvone] | 42%

same assay, conditions: acetonitrile; 0.1 equiv. DBN, 0.1 M DCYA, 0.1 M L-carvone

Row | Structure (SMILES) | Conversion rate
6 | C=C(C)[C@@H]1CC=C(C)C(=O)C1 [L-Carvone] | 47%

same assay, conditions: aqueous pH 10 buffer (5% v/v) in acetonitrile, after 90 minutes

Row | Structure (SMILES) | Reaction between DCYA and carvone
7 | C=C(C)[C@@H]1CC=C(C)C(=O)C1 [L-Carvone] | 42%

same assay, conditions: at 30 min; 1 equiv. DCYA

Row | Structure (SMILES) | Conversion at t30 (depletion of electrophile signal)
8 | C=CC(=O)OCC [Ethyl acrylate] | 92%
9 | C=C(C)[C@@H]1CC=C(C)C(=O)C1 [L-Carvone] | 16%
10 | Oc1ccc(O)cc1 [p-Hydroquinone] | 5%

same assay, conditions: based on depletion of electrophile signal at 30 min

Row | Structure (SMILES) | NMR Classification
11 | C=CC(=O)OCC [Ethyl acrylate] | Strong
12 | C=C(C)[C@@H]1CC=C(C)C(=O)C1 [L-Carvone] | Weak
13 | Oc1ccc(O)cc1 [p-Hydroquinone] | Non^$

same assay, conditions: conversion of test chemical at 90 min; 1 equiv. DCYA, 0.1 equiv. DBN, CDCl3

Row | Structure (SMILES) | NMR Method conversion
14 | C=CC(=O)OCC [Ethyl acrylate] | 93%
15 | C=C(C)[C@@H]1CC=C(C)C(=O)C1 [L-Carvone] | 16%
16 | Oc1ccc(O)cc1 [p-Hydroquinone] | 5%

same assay, conditions: excess of DCYA; chloroform, 0.1 equiv. DBN

Row | Structure (SMILES) | Electrophile depletion
17 | C=C(C)[C@@H]1CC=C(C)C(=O)C1 [L-Carvone] | around 37%

same assay, conditions: excess of electrophile, 2 equiv.; chloroform, 0.1 equiv. DBN

Row | Structure (SMILES) | Depletion
18 | C=C(C)[C@@H]1CC=C(C)C(=O)C1 [L-Carvone] | 21%

same assay, conditions: excess of electrophile, 4 equiv.; chloroform, 0.1 equiv. DBN

Row | Structure (SMILES) | Depletion
19 | C=C(C)[C@@H]1CC=C(C)C(=O)C1 [L-Carvone] | 8%

system: not given; experiment: not given; details: 2.1 mM, pH 10

Row | Structure (SMILES) | DCYA 100-RI | DCYA binary classification: FN | DCYA binary classification: FP | DCYA binary classification: TN | DCYA binary classification: TP
20 | Cn1sccc1=O [2-Methyl-4-isothiazolin-3-one] | 16.4 | 0 | 0 | 0 | 1

same assay, conditions: pH 10

Row | Structure (SMILES) | DCYA 100-RI
21 | O=c1c(O)c(O)c1=O [Squaric acid] | 91.1

system: thiol peptide; experiment: not given; details: not given

Row | Structure (SMILES) | Cys-DPRA binary classification: FN | Cys-DPRA binary classification: FP | Cys-DPRA binary classification: TN | Cys-DPRA binary classification: TP
22 | O=c1c(O)c(O)c1=O [Squaric acid] | 0 | 0 | 0 | 1

system: not given; experiment: not given; details: effective concentration, published literature (Table 1); cited from earlier work

Row | Structure (SMILES) | LLNA (EC3)
23 | C=CC(=O)OCC [Ethyl acrylate] | 28%
24 | Oc1ccc(O)cc1 [p-Hydroquinone] | 0.11%

same assay, conditions: mouse, in vivo; cited from earlier work

Row | Structure (SMILES) | LLNA EC3
25 | O=c1c(O)c(O)c1=O [Squaric acid] | 4.3%

same assay, conditions: published literature; cited from earlier work

Row | Structure (SMILES) | LLNA Classification
26 | C=CC(=O)OCC [Ethyl acrylate] | Weak
27 | C=C(C)[C@@H]1CC=C(C)C(=O)C1 [L-Carvone] | Moderate
28 | Oc1ccc(O)cc1 [p-Hydroquinone] | Strong

same assay, conditions: reported results (Table 7); cited from earlier work

Row | Structure (SMILES) | LLNA EC3
29 | C=CC(=O)OCC [Ethyl acrylate] | 28%
30 | C=C(C)[C@@H]1CC=C(C)C(=O)C1 [L-Carvone] | 13%
31 | Cn1sccc1=O [2-Methyl-4-isothiazolin-3-one] | 1.9%
32 | O=c1c(-c2ccccc2)c1-c1ccccc1 [Diphenyl cyclopropenone] | 0.003%
33 | Oc1ccc(O)cc1 [p-Hydroquinone] | 0.11%

system: thiol peptide; experiment: not given; details: adopted from the literature; cited from earlier work

Row | Structure (SMILES) | Cys-DPRA, percentage of thiol peptide depleted
34 | C=CC(=O)OCC [Ethyl acrylate] | 96.4%
35 | C=C(C)[C@@H]1CC=C(C)C(=O)C1 [L-Carvone] | 26.3^20%
36 | Oc1ccc(O)cc1 [p-Hydroquinone] | 83.3%

same assay, conditions: cited from earlier work

Row | Structure (SMILES) | Cys-DPRA % Pept. remain.
37 | O=c1c(O)c(O)c1=O [Squaric acid] | 53.1%

same assay, conditions: literature; cited from earlier work

Row | Structure (SMILES) | Cys-DPRA reactivity in words
38 | Oc1ccc(O)cc1 [p-Hydroquinone] | non-reactive

same assay, conditions: reported results from the literature; cited from earlier work

Row | Structure (SMILES) | Cys-DPRA % Pept. remain.
39 | C=CC(=O)OCC [Ethyl acrylate] | 3.6%
40 | Cn1sccc1=O [2-Methyl-4-isothiazolin-3-one] | 2.1%
41 | O=c1c(-c2ccccc2)c1-c1ccccc1 [Diphenyl cyclopropenone] | 1.2%
42 | Oc1ccc(O)cc1 [p-Hydroquinone] | 16.7%

system: ARE-dependent gene activity in a recombinant cell line; experiment: not given; details: cited from earlier work

Row | Structure (SMILES) | KeratinoSens ™ EC3
43 | O=c1c(O)c(O)c1=O [Squaric acid] | >2000 µM

same assay, conditions: published literature (Table 1); cited from earlier work

Row | Structure (SMILES) | KeratinoSens ™ EC3
44 | C=CC(=O)OCC [Ethyl acrylate] | 231.19 µM
45 | C=C(C)[C@@H]1CC=C(C)C(=O)C1 [L-Carvone] | 258.71^20 μM
46 | Oc1ccc(O)cc1 [p-Hydroquinone] | 51.29 µM

same assay, conditions: reported results (Table 7); cited from earlier work

Row | Structure (SMILES) | KeratinoSens ™ EC3
47 | C=CC(=O)OCC [Ethyl acrylate] | 231.19 µM
48 | Cn1sccc1=O [2-Methyl-4-isothiazolin-3-one] | 29.56 µM
49 | O=c1c(-c2ccccc2)c1-c1ccccc1 [Diphenyl cyclopropenone] | 1.84 µM
50 | Oc1ccc(O)cc1 [p-Hydroquinone] | 51.29 µM

system: thiol peptide; experiment: Cys-DPRA (Direct Peptide Reactivity Assay), literature data; details: false negative

Row | Structure (SMILES) | Cys-DPRA binary classification: FN
51 | C=CC(=O)OCC [Ethyl acrylate] | 0
52 | C=C(C)[C@@H]1CC=C(C)C(=O)C1 [L-Carvone] | 0
53 | Cn1sccc1=O [2-Methyl-4-isothiazolin-3-one] | 0
54 | O=c1c(-c2ccccc2)c1-c1ccccc1 [Diphenyl cyclopropenone] | 0

same assay, conditions: false positive

Row | Structure (SMILES) | Cys-DPRA binary classification: FP
55 | C=CC(=O)OCC [Ethyl acrylate] | 0
56 | C=C(C)[C@@H]1CC=C(C)C(=O)C1 [L-Carvone] | 0
57 | Cn1sccc1=O [2-Methyl-4-isothiazolin-3-one] | 0
58 | O=c1c(-c2ccccc2)c1-c1ccccc1 [Diphenyl cyclopropenone] | 0

same assay, conditions: true negative

Row | Structure (SMILES) | Cys-DPRA binary classification: TN
59 | C=CC(=O)OCC [Ethyl acrylate] | 0
60 | C=C(C)[C@@H]1CC=C(C)C(=O)C1 [L-Carvone] | 0
61 | Cn1sccc1=O [2-Methyl-4-isothiazolin-3-one] | 0
62 | O=c1c(-c2ccccc2)c1-c1ccccc1 [Diphenyl cyclopropenone] | 0

same assay, conditions: true positive

Row | Structure (SMILES) | Cys-DPRA binary classification: TP
63 | C=CC(=O)OCC [Ethyl acrylate] | 1
64 | Cn1sccc1=O [2-Methyl-4-isothiazolin-3-one] | 1
65 | O=c1c(-c2ccccc2)c1-c1ccccc1 [Diphenyl cyclopropenone] | 1

system: not listed separately; experiment: Microplate spectrophotometric method (DCYA assay), fluorescence end-point; details: RI = reactivity index; 2 equiv. electrophile, pH 10 buffer

Row | Structure (SMILES) | DCYA 100-RI
66 | C=CC(=O)OCC [Ethyl acrylate] | −0.7
67 | C=C(C)[C@@H]1CC=C(C)C(=O)C1 [L-Carvone] | 88.4
68 | O=c1c(-c2ccccc2)c1-c1ccccc1 [Diphenyl cyclopropenone] | 96.3
69 | Oc1ccc(O)cc1 [p-Hydroquinone] | 127.1

same assay, conditions: false negative

Row | Structure (SMILES) | DCYA binary classification: FN
70 | C=CC(=O)OCC [Ethyl acrylate] | 0
71 | C=C(C)[C@@H]1CC=C(C)C(=O)C1 [L-Carvone] | 0
72 | O=c1c(-c2ccccc2)c1-c1ccccc1 [Diphenyl cyclopropenone] | 1

same assay, conditions: false positive

Row | Structure (SMILES) | DCYA binary classification: FP
73 | C=CC(=O)OCC [Ethyl acrylate] | 0
74 | C=C(C)[C@@H]1CC=C(C)C(=O)C1 [L-Carvone] | 0
75 | O=c1c(-c2ccccc2)c1-c1ccccc1 [Diphenyl cyclopropenone] | 0

same assay, conditions: microplate spectrophotometric method

Row | Structure (SMILES) | DCYA assay reactivity / classification in words
76 | Oc1ccc(O)cc1 [p-Hydroquinone] | non-reactive

same assay, conditions: true negative

Row | Structure (SMILES) | DCYA binary classification: TN
77 | C=CC(=O)OCC [Ethyl acrylate] | 0
78 | C=C(C)[C@@H]1CC=C(C)C(=O)C1 [L-Carvone] | 0
79 | O=c1c(-c2ccccc2)c1-c1ccccc1 [Diphenyl cyclopropenone] | 0

same assay, conditions: true positive; positive if 100-RI <95

Row | Structure (SMILES) | DCYA binary classification: TP
80 | C=CC(=O)OCC [Ethyl acrylate] | 1
81 | C=C(C)[C@@H]1CC=C(C)C(=O)C1 [L-Carvone] | 1
82 | O=c1c(-c2ccccc2)c1-c1ccccc1 [Diphenyl cyclopropenone] | 0
